Marks after values point to notes of the source that are not given here.
Tests used:
[1] = test system: selected advanced or metastatic solid tumors; assay: Phase 1 dose-escalation clinical study of INCB024360 in combination with MK-3475: tumor response (modified RECIST v1.1); assay type: in vivo, human; conditions: for CR, patients / NE (not evaluable), patients / PD, patients / PR, patients: preliminary
Description: Phase 1 of the study is a dose-escalation phase and Phase 2 is randomized, double-blind, and placebo-controlled. Phase 1 of the study is conducted in subjects with selected advanced or metastatic solid tumors. Phase 2 of the study is conducted in subjects with advanced NSCLC, e.g., Stage IIIB, IV, or recurrent NSCLC. […] The Phase 1 dose-escalation phase includes cohorts of subjects treated with INCB024360 twice daily (BID) at initial doses of 25 mg BID, 50 mg BID, and 100 mg BID in combination with MK-3475 at 2 mg/kg every 3 weeks. One treatment cycle consists of 21 days. A minimum of 3 subjects are enrolled and treated in each cohort, and all 3 subjects are observed for a minimum of 42 days (6 weeks) before the subsequent cohort begins enrollment. […] The study subject cohorts are summarized as follows: For treatment, INCB024360 is self-administered orally BID and continued BID during the 21-day cycle for an every-3-week dose schedule of MK-3475. The MTD of INCB024360 (or PAD) defined during Phase 1 is used for Phase 2. All BID doses are taken morning and evening, approximately 12 hours apart without respect to food. If a dose is missed by more than 4 hours, that dose is skipped and is resumed at the scheduled time. […] Study subject participation averages about 6 months. The Study Schedule and Procedures for the Phase 1/2 study are as follows: […] Liver function test monitoring occurs weekly during the first 6 weeks of study treatment during Phase 1 and then is tested every 3 weeks thereafter and in Phase 2 for subjects who remain on study treatment. Assessment of tumor size (by magnetic resonance imaging or computed tomography scan) is performed at screening or baseline (before beginning therapy), every 9 weeks for 18 months, and then every 12 weeks thereafter until disease progression. Disease progression is defined as progression confirmed by a second, consecutive assessment at least 4 weeks apart with the option for continuing treatment while awaiting radiologic confirmation of progression where feasible, and where subjects are clinically stable, defined as the following: absence of signs and symptoms (including worsening of laboratory values) indicating disease progression, no decline in ECOG performance status, absence of rapid progression of disease, and absence of progressive tumors at critical anatomical sites (e.g., cord compression) requiring urgent alternative medical intervention. […] In accordance with the protocol, INCB024360 was administered in combination with MK-3475. MK-3475 was intravenously administered at a dose of 2 mg/kg as described.

[2] = Phase 1 dose-escalation clinical study of INCB024360 in combination with MK-3475: adverse events; assay type: in vivo
Description: This Example describes an ongoing Phase 1/2 clinical study to evaluate the safety, tolerability and efficacy of the inventive combination of MK-3475 and INCB024360 in subjects presenting with various solid tumors and advanced non-small cell lung cancer (NSCLC). Phase 1 of the study is a dose-escalation phase and Phase 2 is randomized, double-blind, and placebo-controlled. Phase 1 of the study is conducted in subjects with selected advanced or metastatic solid tumors. Phase 2 of the study is conducted in subjects with advanced NSCLC, e.g., Stage IIIB, IV, or recurrent NSCLC. The dose-escalation phase (Phase 1) is open-label and is designed to identify the maximum tolerated dose (MTD) or pharmacologically acceptable doses (PAD) of INCB024360 in combination with MK-3475 in subjects with Stage IIIB, IV, or recurrent NSCLC, melanoma, transitional cell carcinoma of the genitourinary (GU) tract, renal cell cancer, triple negative breast cancer, adenocarcinoma of the endometrium or squamous cell carcinoma of the head and neck who have disease progression on at least 1 line of therapy for advanced or metastatic cancer.
The Phase 1 dose-escalation phase includes cohorts of subjects treated with INCB024360 twice daily (BID) at initial doses of 25 mg BID, 50 mg BID, and 100 mg BID in combination with MK-3475 at 2 mg/kg every 3 weeks. One treatment cycle consists of 21 days. A minimum of 3 subjects are enrolled and treated in each cohort, and all 3 subjects are observed for a minimum of 42 days (6 weeks) before the subsequent cohort begins enrollment. Additional subjects are enrolled in a cohort to achieve the minimum of 3 evaluable subjects if dropouts or dose interruptions or reductions occur that result in a subject being nonevaluable for dose limiting toxicities (DLTs). When the MTD or PAD is reached, additional subjects are enrolled for a total of 9 subjects, but the additional subjects are treated with MK-3475 at 200 mg every 3 weeks and the MTD or PAD of INCB024360 to further evaluate safety and confirm it as the recommended Phase 2 dose (RP2D). The study subject cohorts are summarized as follows:
For treatment, INCB024360 is self-administered orally BID and continued BID during the 21-day cycle for an every-3-week dose schedule of MK-3475. The MTD of INCB024360 (or PAD) defined during Phase 1 is used for Phase 2. All BID doses are taken morning and evening, approximately 12 hours apart without respect to food. If a dose is missed by more than 4 hours, that dose is skipped and is resumed at the scheduled time. MK-3475 is administered at 2 mg/kg or 200 mg intravenously (IV) over a 30-minute period on Day 1 of an every-3-week cycle, with no intrasubject dose escalation. Study subject participation averages about 6 months.
Primary endpoints of the Phase 1 study are as follows: Safety and tolerability are assessed by monitoring frequency, duration and severity of AEs, through physical examinations, by evaluating changes in vital signs and electrocardiograms, and through clinical laboratory blood and urine sample evaluations. Primary endpoints of the Phase 2 study are as follows: Progression-free survival, defined as the time from randomization until the earliest date of disease progression, as determined by investigator assessment of objective radiographic disease assessments per modified RECIST v1.1, or death due to any cause, if occurring sooner than progression. Imaging is archived for possible retrospective central confirmation of disease progression and response.
Table 4 below presents preliminary data of adverse events (AEs), including immune-related AEs, reported in the described study.

[3] = target: human indoleamine 2,3-dioxygenasae (IDO) (Homo sapiens, UniProt P14902); conditions: human IDO enzyme assay; see U.S. Pat. No. 8,088,803; cited from earlier work
human indoleamine 2,3-dioxygenasae (IDO), sequence (P14902 whole entry): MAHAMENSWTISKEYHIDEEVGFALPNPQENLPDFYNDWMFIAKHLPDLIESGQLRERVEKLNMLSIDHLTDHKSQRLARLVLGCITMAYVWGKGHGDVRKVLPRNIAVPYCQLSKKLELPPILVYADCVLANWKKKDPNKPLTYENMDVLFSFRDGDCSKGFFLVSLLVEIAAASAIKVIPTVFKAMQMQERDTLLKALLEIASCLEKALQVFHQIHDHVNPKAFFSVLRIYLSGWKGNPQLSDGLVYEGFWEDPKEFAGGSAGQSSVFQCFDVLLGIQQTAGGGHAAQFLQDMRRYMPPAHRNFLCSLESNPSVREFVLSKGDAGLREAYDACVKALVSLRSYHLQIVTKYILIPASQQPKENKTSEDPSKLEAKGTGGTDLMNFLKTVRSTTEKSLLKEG

[4] = INCB024360 25 mg BID (n = 4) with MK-3475 2 mg/kg IV
[5] = INCB024360 50 mg BID (n = 4) with MK-3475 2 mg/kg IV
[6] = subjects evaluable for response, both cohorts, with MK-3475
[7] = Grade 3 or 4, 25 mg BID (n = 4)
[8] = Grade 3 or 4, 50 mg BID (n = 8)

With `NS(=O)(=O)NCCNc1nonc1C(=NO)Nc1ccc(F)c(Br)c1` [Compound 1, 4-({2-[(aminosulfonyl)amino]ethyl}amino)-N-(3-bromo-4-fluorophenyl)-N′-hydroxy-1,2,5-oxadiazole-3-carboximidamide] the “response of a subject having melanoma (MEL)” value ([1]; 25 mg BID Cohort, stable, with MK-3475 2 mg/kg IV) was “stable disease (SD)”, the “response of a subject having transitional cell carcinoma (TCC) in bladder” value ([1]; 25 mg BID Cohort, with MK-3475 2 mg/kg IV) was “partial response (PR)” and the “response of a subject with melanoma (MEL)” value ([1]; 50 mg BID Cohort, first melanoma subject, with MK-3475 2 mg/kg IV) was “complete response (CR)”. The “response of a subject with melanoma (MEL)” value ([1]; 50 mg BID cohort, further melanoma subject, with MK-3475 2 mg/kg IV) was “partial response (PR)”, the “total best overall response (per modified RECIST v1.1)” value ([1]; 25 and 50 mg BID cohorts pooled, only subjects evaluable for response (5/7), with MK-3475) was 71% and the disease control rate ([1]; 25 and 50 mg BID cohorts pooled, only subjects evaluable for response (7/7), with MK-3475) was 100%. The “CR, patients” value [1, 4] was 0 n (%), the “NE (not evaluable), patients” value [1, 4] was 0 n (%) and the “PD, patients” value [1, 4] was 0 n (%). For the same molecule, the “PR, patients” value [1, 4] was 2 (50%) n (%), the “CR, patients” value [1, 5] was 1 (33%) n (%) and the “NE (not evaluable), patients” value [1, 5] was 1** n (%). For the same molecule, the “PD, patients” value [1, 5] was 0 n (%), the “PR, patients” value [1, 5] was 2 (67%) n (%) and the “Disease Control Rate (DCR)” value [1, 6] was 7/7. The “Objective response rate (ORR)” value [1, 6] was 4/7, the “Grade 3 rash related to dose limiting toxicity (DLT)” value ([2]; 50 mg BID cohort) was “one” and the “Cough (AE)” value ([2]; All Grades, 25 mg BID (n = 4)) was 2 n (%). The “DVT (IJ) (AE; Deep Vein Thrombosis, Internal Jugular)” value (from here on “DVT (IJ)”) ([2]; All Grades, 25 mg BID (n = 4)) was 1 n (%), the “Diarrhea (AE)” value ([2]; All Grades, 25 mg BID (n = 4)) was 2 n (%) and the “Dyspnea (AE)” value ([2]; All Grades, 25 mg BID (n = 4)) was 1 n (%). For the same molecule, the “Fall (AE)” value ([2]; All Grades, 25 mg BID (n = 4)) was 0 n (%), the “Fatigue (AE)” value ([2]; All Grades, 25 mg BID (n = 4)) was 0 n (%) and the “Headache (AE)” value ([2]; All Grades, 25 mg BID (n = 4)) was 1 n (%). For the same molecule, the “Mild Infusion Reaction (AE)” value ([2]; All Grades, 25 mg BID (n = 4)) was 0 n (%), the “Nausea (AE)” value ([2]; All Grades, 25 mg BID (n = 4)) was 2 n (%) and the “Pruritis (AE)” value ([2]; All Grades, 25 mg BID (n = 4)) was 1 n (%). For the same molecule, the “Rash (AE)” value ([2]; All Grades, 25 mg BID (n = 4)) was 0 n (%), the “Cough (AE)” value ([2]; All Grades, 50 mg BID (n = 8)) was 0 n (%) and the “DVT (IJ)” value ([2]; All Grades, 50 mg BID (n = 8)) was 0 n (%). For the same molecule, the “Diarrhea (AE)” value ([2]; All Grades, 50 mg BID (n = 8)) was 0 n (%), the “Dyspnea (AE)” value ([2]; All Grades, 50 mg BID (n = 8)) was 0 n (%) and the “Fall (AE)” value ([2]; All Grades, 50 mg BID (n = 8)) was 1 n (%). The “Fatigue (AE)” value ([2]; All Grades, 50 mg BID (n = 8)) was 1 n (%), the “Headache (AE)” value ([2]; All Grades, 50 mg BID (n = 8)) was 0 n (%) and the “Mild Infusion Reaction (AE)” value ([2]; All Grades, 50 mg BID (n = 8)) was 1 n (%). For the same molecule, the “Nausea (AE)” value ([2]; All Grades, 50 mg BID (n = 8)) was 1 n (%), the “Pruritis (AE)” value ([2]; All Grades, 50 mg BID (n = 8)) was 0 n (%) and the “Rash (AE)” value ([2]; All Grades, 50 mg BID (n = 8)) was 2 n (%). For the same molecule, the “Cough (AE)” value ([2]; All Grades, Total (N = 12)) was 2 n (%), the “DVT (IJ)” value ([2]; All Grades, Total (N = 12)) was 1 n (%) and the “Diarrhea (AE)” value ([2]; All Grades, Total (N = 12)) was 2 n (%). For the same molecule, the “Dyspnea (AE)” value ([2]; All Grades, Total (N = 12)) was 1 n (%), the “Fall (AE)” value ([2]; All Grades, Total (N = 12)) was 1 n (%) and the “Fatigue (AE)” value ([2]; All Grades, Total (N = 12)) was 1 n (%). For the same molecule, the “Headache (AE)” value ([2]; All Grades, Total (N = 12)) was 1 n (%), the “Mild Infusion Reaction (AE)” value ([2]; All Grades, Total (N = 12)) was 1 n (%) and the “Nausea (AE)” value ([2]; All Grades, Total (N = 12)) was 3 n (%). For the same molecule, the “Pruritis (AE)” value ([2]; All Grades, Total (N = 12)) was 1 n (%), the “Rash (AE)” value ([2]; All Grades, Total (N = 12)) was 2 n (%) and the “Cough (AE)” value [2, 7] was 0 n (%). For the same molecule, the “DVT (IJ)” value [2, 7] was 0 n (%), the “Dyspnea (AE)” value [2, 7] was 0 n (%) and the “Fall (AE)” value [2, 7] was 0 n (%). The “Fatigue (AE)” value [2, 7] was 0 n (%), the “Headache (AE)” value [2, 7] was 0 n (%) and the “Mild Infusion Reaction (AE)” value [2, 7] was 0 n (%). For the same molecule, the “Nausea (AE)” value [2, 7] was 0 n (%), the “Pruritis (AE)” value [2, 7] was 0 n (%) and the “Rash (AE)” value [2, 7] was 0 n (%). For the same molecule, the “Cough (AE)” value [2, 8] was 0 n (%), the “DVT (IJ)” value [2, 8] was 0 n (%) and the “Dyspnea (AE)” value [2, 8] was 0 n (%). For the same molecule, the “Fatigue (AE)” value [2, 8] was 0 n (%), the “Headache (AE)” value [2, 8] was 0 n (%) and the “Mild Infusion Reaction (AE)” value [2, 8] was 0 n (%). The “Nausea (AE)” value [2, 8] was 0 n (%), the “Pruritis (AE)” value [2, 8] was 0 n (%) and the “Rash (AE)” value [2, 8] was 1 n (%). For the same molecule, the “Fall (AE)” value ([2]; Grade 3 or 4, 50 mg BID (n = 8), not related to study treatment) was 1 n (%), the “Cough (AE)” value ([2]; Grade 3 or 4, Total (N = 12)) was 0 n (%) and the “DVT (IJ)” value ([2]; Grade 3 or 4, Total (N = 12)) was 0 n (%). For the same molecule, the “Dyspnea (AE)” value ([2]; Grade 3 or 4, Total (N = 12)) was 0 n (%), the “Fall (AE)” value ([2]; Grade 3 or 4, Total (N = 12)) was 1 n (%) and the “Fatigue (AE)” value ([2]; Grade 3 or 4, Total (N = 12)) was 0 n (%). For the same molecule, the “Headache (AE)” value ([2]; Grade 3 or 4, Total (N = 12)) was 0 n (%), the “Mild Infusion Reaction (AE)” value ([2]; Grade 3 or 4, Total (N = 12)) was 0 n (%) and the “Nausea (AE)” value ([2]; Grade 3 or 4, Total (N = 12)) was 0 n (%). For the same molecule, the “Pruritis (AE)” value ([2]; Grade 3 or 4, Total (N = 12)) was 0 n (%) and the “Rash (AE)” value ([2]; Grade 3 or 4, Total (N = 12)) was 1 n (%).

In the case of `NS(=O)(=O)NCCNc1nonc1C(=NO)Nc1ccc(F)c(C(F)(F)F)c1` [Compound 3, 4-({2-[(aminosulfonyl)amino]ethyl}amino)-N-[4-fluoro-3-(trifluoromethyl)phenyl]-N′-hydroxy-1,2,5-oxadiazole-3-carboximidamide], the IC50 [3] is given as < 100 nM.
